In assay [1] the test system is spontaneously hypertensive rats (SHRs). Briefly: Reversible middle cerebral artery occlusion (MCAO), infarct volume, spontaneously hypertensive rats. It counts as in vivo, rat. To be noted: 300 ng/kg/min continuous subcutaneous infusion, vs vehicle treated controls, 24 h after induction of cerebral ischemia (1 h MCAO). As for the experimental part: (§1) Male Sprague Dawley (SD) or spontaneously hypertensive rats (SHRS) were anesthetized using isoflurane and the right middle cerebral artery (MCAO) occluded by insertion of a 4-0 nylon monofilament up the internal carotid artery to the origin of the middle cerebral artery (MCA) (Zea Longa et al, 1989 Stroke 20:84). After 1 h the filament was retracted, the ischemic territory reperfused and the animal allowed to recover. After 24 h the rats were sacrificed, at which time brains were removed and analyzed histologically to quantify infarct volume.
(§2) Groups of animals were treated with either vehicle (PBS) or the bradykinin B2 receptor antagonist Hoe 140 (Hoechst) by continuous subcutaneous infusion via osmotic mini-pumps. Primed mini osmotic pumps (Alza Corp.,) were implanted into the subcutaneous space at the scruff of the neck immediately prior to induction of cerebral ischemia. The pumps were loaded to release 300 ng/kg/min Hoe 140 and delivered compound or vehicle at a rate of 8 μl/h.
(§3) In a separate experiment groups of animals were treated with either vehicle (sterile isotonic saline), TA2 (mouse anti rat VLA4: Seikagaku America Inc.) or an isotype control antibody (mouse anti-human LFA3: obtained from Biogen, Inc.). All treatments were administered 24 h before surgery intravenously (2.5 mg/kg or appropriate volume of vehicle)
(§4) Vehicle treated control rats that underwent MCAO sustained extensive lesions throughout cortical and subcortical regions of the brain. The ischemic hemisphere was markedly swollen and significant behavioral deficits were observed (eg. hemiparesis resulting in rotation and limb weakness). Spontaneously hypertensive rats sustained more extensive and reproducible brain infarcts than Sprague Dawley rats subjected to the same surgical procedure. Infarct volumes are expressed as mean values+/−s.e.m. Statistical analysis was performed using an unpaired Students' t-test (* denotes p<0.05, ** denotes p<0.01).

For the next assay, the system named is Sprague Dawley (SD) rats. Briefly: Reversible middle cerebral artery occlusion (MCAO), infarct volume, Sprague Dawley rats. It counts as in vivo, rat. To be noted: 300 ng/kg/min continuous subcutaneous infusion, vs vehicle treated controls, 24 h after induction of cerebral ischemia (1 h MCAO). As for the experimental part:
as §1, §2, §3, §4

With Hoe 140, in assay [1], the “reduction of cortical infarct volume” value is 43%, the “reduction of subcortical infarct volume” value was determined as 17% and the “reduction of total infarct volume” value came to 37%. Also, in the assay on Sprague Dawley (SD) rats, the “reduction of cortical infarct volume” value was 93%, the “reduction of subcortical infarct volume” value came to 24% and the “reduction of total infarct volume” value came out at 57%.

For the origin of these results see patent US20020197233A1, “Methods of treating central nervous system ischemic or hemorrhagic injury using anti alpha4 integrin antagonists” (priority 1999, published 2002).
